# Assay results from patent US11766443B2, “Cyclopentathiophene carboxamide derivatives as platelet activating factor receptor antagonists” (Boehringer Ingelheim International GmbH, priority 2021, dated 2023).
# Assays:
# [1] = aqueous solubility in buffer (from DMSO stock, 24 h shaking, LC-UV); details: pH 2.2, aqueous buffer, kinetic from dmso stock
# Procedure: The aqueous solubility of the test compound is determined by comparing the amount dissolved in buffer to the amount in an ACN/water (1/1) solution. Starting from a 10 mM DMSO stock solution aliquots are diluted with ACN/water (1/1) or buffer, respectively. After 24 h of shaking, the solutions are filtrated and analyzed by LC-UV. The amount dissolved in buffer is compared to the amount in the ACN solution.
# Solubility will usually be measured from 0.001 to 0.125 mg/mL at a DMSO concentration of 2.5%. If more than 90% of the compound is dissolved in buffer, the value is marked with “>”.
# human PAFR = target: T1, human PAFR (Homo sapiens, UniProt P25105); assay: cellular HTRF IP1 endpoint assay: inhibition of PAFR activation by PAF C-16 ligand; assay type: cell-based; details: HEK293 cells overexpressing human PAFR; PAF ligand 11 nM
# T1 construct: expressed in transfected cells; host or cells: HEK293
# Procedure: The ability of compounds of formula (I.0) to inhibit the activation of the PAF receptor (PAFR) by the PAF C-16 ligand (PAF) is determined using the following cellular HTRF IP1 assay (IP1 Gq assay kit from Cisbio, Cat. no.: 62IP1APEJ) in assay buffer (1×HBSS, 20 mM Hepes, pH 7.4, 50 mM LiCl and containing 0.1% (w/v) BSA):
# HEK293 cells overexpressing human PAFR (produced in-house) are seeded into a Poly-D-Lysine coated 384 well white cell culture microtiter assay plate with lid (15.000 cells per well). Subsequently, the plates are incubated over night at 37° C./5% CO2. On the next day, cells are being washed and subsequently, various concentrations of the test compounds (compounds in 100% DMSO; final concentration of DMSO in wells is 1%) are added to the assay plate via Echo 555 acoustic liquid handler. Plates are then incubated with lid for 90 minutes at 37° C./5% CO2. Thereafter, PAF ligand (Cayman Chemical Company, Item no.: 60900) is added at a final concentration of 11 nM. Plates are then incubated with lid for 60 minutes at 37° C./5% CO2. Then, 5 μl per well of Anti-IP1-Anti body-Cryptate solution and 5 μL per well of IP1-d2 solution are added to all wells of the plate and the plate is incubated for another 60 minutes light protected at room temperature. The emissions at 620 nm and 665 nm (Excitation wavelength: 320 nm) are measured using an Envision Reader (PerkinElmer).
# T1 sequence (P25105 whole entry): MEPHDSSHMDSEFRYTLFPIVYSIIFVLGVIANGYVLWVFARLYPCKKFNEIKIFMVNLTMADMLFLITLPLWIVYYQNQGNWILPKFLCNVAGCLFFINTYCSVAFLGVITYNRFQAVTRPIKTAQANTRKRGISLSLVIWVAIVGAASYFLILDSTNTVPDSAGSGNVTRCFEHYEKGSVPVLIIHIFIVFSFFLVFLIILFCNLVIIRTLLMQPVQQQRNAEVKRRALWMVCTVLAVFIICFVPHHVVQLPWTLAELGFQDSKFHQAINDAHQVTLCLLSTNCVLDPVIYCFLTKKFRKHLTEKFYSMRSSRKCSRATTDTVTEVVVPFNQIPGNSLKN
Structure (SMILES),solubility at 24 h [1],IC50 (human PAFR)
Cc1nnc2n1-c1sc3c(c1[C@H](c1ccccc1Cl)NC2)C[C@H](C(=O)N1CC2(CCOCC2)C1)C3 [Example 30],80 µg/mL,12 nM
"Cc1nnc2n1-c1sc3c(c1C(c1ccc(Cl)cc1)NC2)CC(C(=O)N1CCOCC1)C3 (stereo not shown) [Example 52, 9-(4-Chlorophenyl)-3-methyl-13-(morpholine-4-carbonyl)-16-thia-2,4,5,8-tetraazatetracyclo[8.6.0.0^2,6.0^11,15]hexadeca-1(10),3,5,11(15)-tetraene]",–,283 nM
Cc1nnc2n1-c1sc3c(c1C(c1ccccc1)NC2)CC(C(=O)N1CCOCC1)C3 (stereo not shown) [Example 74],> 104 µg/mL,252 nM
"Cc1nnc2n1-c1sc3c(c1[C@H](c1ccccc1Cl)NC2)C[C@H](C(=O)N1CCO[C@@H](C)C1)C3 [Example 4, (9R,13S)-9-(2-Chlorophenyl)-3-methyl-13-[(2S)-2-methylmorpholine-4-carbonyl]-16-thia-2,4,5,8-tetraazatetracyclo-[8.6.0.0^2,6.0^11,15]hexadeca-1(10)3,5,11(15)-tetraene]",> 113 µg/mL,6.8 nM
Cc1ncc2n1CCN(C(=O)[C@@H]1Cc3sc4c(c3C1)[C@H](c1ccccc1Cl)NCc1nnc(C)n1-4)C2 [Example 29],> 110 µg/mL,69 nM
"Cc1nnc2n1-c1sc3c(c1C(c1ccccc1Cl)NC2)C[C@H](C(=O)NC(C)(C)CO)C3 (stereo partly drawn) [Example 65, (13S)-9-(2-Chlorophenyl)-N-(1-hydroxy-2-methylpropan-2-yl)-3-methyl-16-thia-2,4,5,8-tetraazatetracyclo-[8.6.0.0^2,6.0^11,15]hexadeca-1(10),3,5,11(15)-tetraene-13-carboxamide]",> 147 µg/mL,11 nM
"Cc1nnc2n1-c1sc3c(c1[C@@H](c1ccccc1Cl)NC2)C[C@H](C(=O)N1CCOCC1)C3 [Example 3, (9S,13S)-9-(2-chlorophenyl)-3-methyl-13-(morpholine-4-carbonyl)-16-thia-2,4,5,8-tetraazatetracyclo[8.6.0.0^2,6.0^11,15]-hexadeca-1(10),3,5,11(15)-tetraene]",> 118 µg/mL,423 nM
CCc1nnc2n1-c1sc3c(c1[C@@H](c1ccccc1Cl)NC2)C[C@@H](C(=O)N1CCOCC1)C3 [Example 71],–,> 999 nM
Cc1nnc2n1-c1sc3c(c1[C@H](c1ccccc1Cl)NC2)C[C@H](C(=O)N1CCC(F)(F)CC1)C3 [Example 18],> 112 µg/mL,3.1 nM
Cc1nnc2n1-c1sc3c(c1[C@H](c1ccccc1Cl)NC2)C[C@H](C(=O)N[C@@H]1CCC(F)(F)C1)C3 [Example 16],> 118 µg/mL,1.4 nM
"CCCN(CCC)C(=O)[C@@H]1Cc2sc3c(c2C1)[C@H](c1ccccc1Cl)NCc1nnc(C)n1-3 [Example 73, (9R,13S)-9-(2-chlorophenyl)-3-methyl-N,N-dipropyl-16-thia-2,4,5,8-tetraazatetracyclo[8.6.0.0^2,6.0^11,15]hexadeca-1(10),3,5,11(15)-tetraene-13-carboxamide]",> 110 µg/mL,0.7 nM
"Cc1nnc2n1-c1sc3c(c1C(c1ccccc1C1CC1)NC2)CC(C(=O)N1CCOCC1)C3 (racemic) [Example 59, 9-(2-Cyclopropylphenyl)-3-methyl-13-(morpholine-4-carbonyl)-16-thia-2,4,5,8-tetraazatetracyclo[8.6.0.0^2,6.0^11,15]-hexadeca-1(10),3,5,11(15)-tetraene]",> 119 µg/mL,> 322 nM
Cc1nnc2n1-c1sc3c(c1[C@@H](c1ccccc1)NC2)C[C@@H](C(=O)N1CCOCC1)C3 [Example 75],–,> 568 nM
Cc1nnc2n1-c1sc3c(c1[C@H](c1ccccc1Cl)NC2)C[C@H](C(=O)N1C[C@@H](C)O[C@@H](C)C1)C3 [Example 27],> 133 µg/mL,5.5 nM
Cc1nnc2n1-c1sc3c(c1[C@H](c1ccccc1Cl)NC2)C[C@H](C(=O)N1C[C@H](C)O[C@@H](C)C1)C3 [Example 6],> 112 µg/mL,11 nM
Cc1nnc2n1-c1sc3c(c1[C@H](c1ccccc1)NC2)C[C@@H](C(=O)N1CCOCC1)C3 [Example 77],–,> 1000 nM
"Cc1nnc2n1-c1sc3c(c1C(c1ccccc1C(F)(F)F)NC2)CC(C(=O)N1CCOCC1)C3 (stereo not shown) [Example 56, 3-Methyl-13-(morpholine-4-carbonyl)-9-[2-(trifluoromethyl)phenyl]-16-thia-2,4,5,8-tetraazatetracyclo[8.6.0.0^2,6.0^11,15]-hexadeca-1(10),3,5,11(15)-tetraene]",> 126 µg/mL,–
Cc1nnc2n1-c1sc3c(c1[C@@H](c1ccccc1)NC2)C[C@H](C(=O)N1CCOCC1)C3 [Example 78],–,> 1000 nM
Cc1nnc2n1-c1sc3c(c1[C@H](c1ccccc1)NC2)C[C@H](C(=O)N1CCOCC1)C3 [Example 76],–,140 nM

# Now from value to compound:
solubility at 24 h [1],IC50 (human PAFR),Structure (SMILES)
> 121 µg/mL,73 nM,CCc1nnc2n1-c1sc3c(c1C(c1ccccc1Cl)NC2)CC(C(=O)N1CCOCC1)C3 (stereo not shown) [Example 67]
> 118 µg/mL,–,"Cc1nnc2n1-c1sc3c(c1C(c1cc(F)cc(F)c1)NC2)CC(C(=O)N1CCOCC1)C3 (stereo not shown) [Example 58, 9-(3,5-Difluorophenyl)-3-methyl-13-(morpholine-4-carbonyl)-16-thia-2,4,5,8-tetraazatetracyclo[8.6.0.0^2,6.0^11,15]-hexadeca-1(10),3,5,11(15)-tetraene]"
–,> 1000 nM,CCc1nnc2n1-c1sc3c(c1[C@H](c1ccccc1Cl)NC2)C[C@@H](C(=O)N1CCOCC1)C3 [Example 70]
> 128 µg/mL,161 nM,"Cc1nnc2n1-c1sc3c(c1C(c1ccccc1Br)NC2)CC(C(=O)N1CCOCC1)C3 (racemic) [Example 57, 9-(2-Bromophenyl)-3-methyl-13-(morpholine-4-carbonyl)-16-thia-2,4,5,8-tetraazatetracyclo[8.6.0.0^2,6.0^11,15]hexadeca-1(10),3,5,11(15)-tetraene]"
> 113 µg/mL,1.7 nM,Cc1nnc2n1-c1sc3c(c1[C@H](c1ccccc1Cl)NC2)C[C@H](C(=O)NCC1CC1)C3 [Example 15]
112 µg/mL,6.3 nM,Cc1nnc2n1-c1sc3c(c1[C@H](c1ccccc1Cl)NC2)C[C@H](C(=O)NCc1cnc(C(F)(F)F)nc1)C3 [Example 46]
108 µg/mL,1.4 nM,Cc1nnc2n1-c1sc3c(c1[C@H](c1ccccc1Cl)NC2)C[C@H](C(=O)NCc1ccc(C(F)(F)F)cn1)C3 [Example 38]
–,> 322 nM,"Cc1nnc2n1-c1sc3c(c1C(c1ccccc1CO)NC2)CC(C(=O)N1CCOCC1)C3 (racemic) [Example 60, {2-[3-Methyl-13-(morpholine-4-carbonyl)-16-thia-2,4,5,8-tetraazatetracyclo[8.6.0.0^2,6.0^11,15]hexadeca-1(10),3,5,11(15)-tetraen-9-yl]phenyl}methanol]"
> 116 µg/mL,> 999 nM,CCc1nnc2n1-c1sc3c(c1[C@@H](c1ccccc1Cl)NC2)C[C@H](C(=O)N1CCOCC1)C3 [Example 68]
> 113 µg/mL,> 322 nM,"Cc1nnc2n1-c1sc3c(c1C(c1ccccc1O)NC2)CC(C(=O)N1CCOCC1)C3 (racemic) [Example 61, 2-[3-Methyl-13-(morpholine-4-carbonyl)-16-thia-2,4,5,8-tetraazatetracyclo[8.6.0.0^2,6.0^11,15]hexadeca-1(10),3,5,11(15)-tetraen-9-yl]phenol]"
> 126 µg/mL,2.1 nM,Cc1nnc2n1-c1sc3c(c1[C@H](c1ccccc1Cl)NC2)C[C@H](C(=O)N(C)Cc1ccccc1)C3 [Example 34]
> 112 µg/mL,41 nM,Cc1nnc2n1-c1sc3c(c1[C@H](c1ccccc1Cl)NC2)C[C@H](C(=O)NCc1ccnnc1)C3 [Example 44]
> 140 µg/mL,1.3 nM,Cc1nnc2n1-c1sc3c(c1[C@H](c1ccccc1Cl)NC2)C[C@H](C(=O)NC1(c2ccc(Cl)cn2)CC1)C3 [Example 10]
> 119 µg/mL,235 nM,"CSc1ccccc1C1NCc2nnc(C)n2-c2sc3c(c21)C[C@H](C(=O)N1CCOCC1)C3 (mixture of isomers) [Example 79, 3-Methyl-9-[2-(methylsulfanyl)phenyl]-13-(morpholine-4-carbonyl)-16-thia-2,4,5,8-tetraazatetracyclo[8.6.0.0^2,6.0^11,15]hexadeca-1(10),3,5,11(15)-tetraene]"
49 µg/mL,–,"COc1ccccc1C1NCc2nnc(C)n2-c2sc3c(c21)CC(C(=O)N1CCOCC1)C3 (stereo not shown) [Example 54, 9-(2-Methoxyphenyl)-3-methyl-13-(morpholine-4-carbonyl)-16-thia-2,4,5,8-tetraazatetracyclo[8.6.0.0^2,6.0^11,15]-hexadeca-1(10),3,5,11(15)-tetraene]"
> 110 µg/mL,–,"Cc1ccccc1[C@H]1NCc2nnc(C)n2-c2sc3c(c21)C[C@H](C(=O)N1CCOCC1)C3 [Example 63, (9R,13S)-3-Methyl-9-(2-methylphenyl)-13-(morpholine-4-carbonyl)-16-thia-2,4,5,8-tetraazatetracyclo[8.6.0.0^2,6.0^11,15]-hexadeca-1(10),3,5,11(15)-tetraene]"
